These results are taken from patent US11865183B2, “Conjugates and conjugating reagents comprising a linker that includes at least two (−CH2—CH2—O—) units in a ring” (priority 2016, dated 2024).

“And” between values parts separate entries of the source, which are not always exact repeats. Equal entries are not always repeated. Non-standard residues stand in square brackets, D forms with d. Residues, ends and D or L forms follow the SMILES beside them. *: point of attachment. Dolaproine = CO[C@@H]([C@@H]1CCCN1)[C@@H](C)C(=O)O; Dil = CC[C@H](C)[C@H](NC)[C@@H](CC(=O)O)OC; X1 = C[C@@H](N*)[C@@H](O)c1ccccc1; NMeV = CN[C@H](C(=O)O)C(C)C

Usually IC50 stands for the point on the concentration scale where inhibition reaches its midpoint. A higher IC50 goes with weaker potency in that assay.

Assay [1] deals with Karpas-299 cells (T-anaplastic large cell lymphoma, ALCL). The experiment in a line: Karpas-299 mouse xenograft study. Type of assay: in vivo, CB17-SCID mice. To be noted: single i.v. 1 mg/kg on day 12, groups of eight mice. The procedure: Healthy female CB17-SCID mice (CBySmn.CB17-Prkdcscid/J, Charles River Laboratories) with an average body weight of 18.1 g were used for cell inoculation (Day 0). 24 to 72 h prior to tumour cell injection, the mice were γ-irradiated (1.44 Gy, ^60Co). The animals were maintained in SPF health status according to the FELASA guidelines in housing rooms under controlled environmental conditions.
Tumours were induced by subcutaneous injection of 10^7 Karpas-299 cells (T-anaplastic large cell lymphoma, ALCL) in 200 μL of RPMI 1640 into the right flank. Tumours were measured twice a week with calipers, and the volume was estimated using the formula: […]
Twelve days after tumour implantation (Day 12), the animals were randomised into groups of eight mice using Vivo manager® software (211 mm^3 mean tumour volume) and treatment was initiated. The animals from the vehicle group received a single intravenous (i.v.) injection of PBS. The treated groups were dosed with a single i.v. injection of ADC at 0.8 mg/kg, or Adcetris© (brentuximab vedotin) at 1 mg/kg.
Treatment tolerability was assessed by bi-weekly body weight measurement and daily observation for clinical signs of treatment-related side effects. Mice were euthanized when a humane endpoint was reached (e.g. 1,600 mm^3 tumour volume) or after a maximum of 9 weeks post-dosing. Asterisks within the graphs indicate where animals were euthanized. […]

For the next assay, the system named is C4-2 cells (PSMA). Nature of the assay: In vitro cell viability assay (Cell-Titer Glo), C4-2. Type of assay: cell-based. To be noted: C4-2, 96 h treatment. The text has this:
(§1) Loss of tumour cell viability following treatment with cytotoxic drugs in vitro can be measured by growing cell lines in the presence of increasing concentrations of drug and quantifying the loss of proliferation or metabolic activity using Cell-Titer Glo® Luminescent reagent (Promega). The protocol for PSMA and CD30 overexpressing cell lines describes cell seeding, drug treatment and determination of the cell viability in reference to untreated cells based on ATP synthesis, which is directly correlated to the number of cells present in the well.
(§2) The cell lines listed in Table 2 were maintained following the suppliers' recommendations.
(§3) Adherent PSMA-positive LNCaP and C4-2 cells were detached with TrypLE and resuspended in complete medium. Cells were counted using disposable Neubauer counting chambers and cell density adjusted to 10×10^4 cells/mL for LNCaP and 2×10^4 cells/mL for C4-2, respectively. […]
(§4) The cell viability assay was carried out using the Cell-Titer Glo® Luminescence reagent, as described by the manufacturer's instructions, (Promega Corp. Technical Bulletin TB288; Lewis Phillips G. D, Cancer Res 2008; 68:9280-9290).
(§5) Luminescence was recorded using a Molecular Devices Spectramax i3x plate reader and data subsequently analysed using GraphPad Prism four parameter non-linear regression model. […]

The next assay has as its system Karpas 299 cells (CD30). The experiment in a line: In vitro cell viability assay (Cell-Titer Glo), Karpas 299. Format: cell-based, Human. To be noted: Karpas 299, 96 h treatment. An excerpt: Viability was expressed as % of untreated cells and calculated using the following formula: […]
For a further assay, the system named is LNCaP cells (PSMA). The experiment in a line: In vitro cell viability assay (Cell-Titer Glo), LNCaP. Format: cell-based. To be noted: 96 h treatment.
Source text: as §1, §2, §3, §4, §5

In the case of brentuximab vedotin [Adcetris®], in assay [1] (after day 20), the “Animals with tumour re-growth” value is recorded as 7/8. Besides, the “Animals with no measureable tumour at end of study (day 71)” value in assay [1] is recorded as 1/8.
Regarding `CC[C@H](C)[C@@H]([C@@H](CC(=O)N1CCC[C@H]1[C@H](OC)[C@@H](C)C(=O)N[C@H](C)[C@@H](O)c1ccccc1)OC)N(C)C(=O)[C@@H](NC(=O)[C@@H](NC)C(C)C)C(C)C` [MMAE, monomethyl auristatin E] (H-[NMeV]V[Dil][Dolaproine]-X1), the IC50 with C4-2 cells (PSMA) is 0.71 nM; in the assay on Karpas 299 cells (CD30) it was 0.15 nM and 0.2 nM; with LNCaP cells (PSMA) it was 2.14 nM.
